Legend:
PDPK1 = target: T1, PDPK1 (Homo sapiens, UniProt O15530); test: KINOMEscan; format: binding; settings: 1 μM of compound 4; read-out: POC
T1 construct: purchased Eurofins DiscoverX Corporation (KINOMEscan)

CSF1R-autoinhibited = CSF1R-autoinhibited (Homo sapiens, UniProt P07333); test: KINOMEscan; format: binding; settings: 1 μM of compound 4; read-out: POC
ACVR1B = target: T2, ACVR1B (Homo sapiens, UniProt P36896); test: KINOMEscan; format: binding; settings: 1 μM of compound 4; read-out: POC
T2 construct: purchased Eurofins DiscoverX Corporation
T2 sequence (P36896 24-505): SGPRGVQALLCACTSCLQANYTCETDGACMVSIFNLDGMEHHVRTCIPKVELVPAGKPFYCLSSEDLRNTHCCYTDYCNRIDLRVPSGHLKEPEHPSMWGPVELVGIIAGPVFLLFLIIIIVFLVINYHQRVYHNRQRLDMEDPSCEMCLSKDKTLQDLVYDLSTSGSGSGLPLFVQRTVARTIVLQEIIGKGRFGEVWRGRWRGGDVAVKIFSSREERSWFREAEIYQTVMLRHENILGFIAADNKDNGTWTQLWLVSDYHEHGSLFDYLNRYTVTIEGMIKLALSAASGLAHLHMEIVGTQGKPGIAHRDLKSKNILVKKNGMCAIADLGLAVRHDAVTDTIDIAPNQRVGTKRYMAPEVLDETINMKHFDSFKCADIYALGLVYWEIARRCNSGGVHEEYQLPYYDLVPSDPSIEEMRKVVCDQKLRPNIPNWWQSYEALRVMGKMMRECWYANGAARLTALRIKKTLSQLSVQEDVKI

FLT3(R834Q) = target: T3, FLT3(R834Q) (Homo sapiens, UniProt P36888, R834Q); test: KINOMEscan; format: binding; settings: 1 μM of compound 4; read-out: POC
T3 construct: purchased Eurofins DiscoverX Corporation

PRKD1 = PRKD1 (Homo sapiens, UniProt Q15139); test: KINOMEscan; format: binding; settings: 1 μM of compound 4; read-out: POC
SgK110 = target: T4, SgK110 (Homo sapiens, UniProt P0C264); test: KINOMEscan; format: binding; settings: 1 μM of compound 4; read-out: POC
T4 construct: purchased Eurofins DiscoverX (KINOMEscan service)
T4 sequence (P0C264 whole entry): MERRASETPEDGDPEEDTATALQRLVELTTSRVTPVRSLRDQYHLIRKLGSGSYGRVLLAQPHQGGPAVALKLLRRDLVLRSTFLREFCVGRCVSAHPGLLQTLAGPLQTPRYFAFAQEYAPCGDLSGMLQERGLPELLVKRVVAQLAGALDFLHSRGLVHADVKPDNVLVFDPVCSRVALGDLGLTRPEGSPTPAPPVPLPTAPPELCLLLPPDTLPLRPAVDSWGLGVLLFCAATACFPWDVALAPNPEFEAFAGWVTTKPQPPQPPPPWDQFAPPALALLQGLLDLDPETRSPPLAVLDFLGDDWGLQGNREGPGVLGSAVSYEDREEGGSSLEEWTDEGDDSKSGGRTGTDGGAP

LIMK2 = LIMK2 (Homo sapiens, UniProt P53671); test: KINOMEscan; format: binding; settings: 1 μM of compound 4; read-out: POC
MST4 = MST4 (Homo sapiens, UniProt Q9P289); test: KINOMEscan; format: binding; settings: 1 μM of compound 4; read-out: POC
FYN = target: T5, FYN (Homo sapiens, UniProt P06241); test: KINOMEscan; format: binding; settings: 1 μM of compound 4; read-out: POC
T5 construct: purchased Eurofins DiscoverX Corporation
T5 sequence (P06241 whole entry): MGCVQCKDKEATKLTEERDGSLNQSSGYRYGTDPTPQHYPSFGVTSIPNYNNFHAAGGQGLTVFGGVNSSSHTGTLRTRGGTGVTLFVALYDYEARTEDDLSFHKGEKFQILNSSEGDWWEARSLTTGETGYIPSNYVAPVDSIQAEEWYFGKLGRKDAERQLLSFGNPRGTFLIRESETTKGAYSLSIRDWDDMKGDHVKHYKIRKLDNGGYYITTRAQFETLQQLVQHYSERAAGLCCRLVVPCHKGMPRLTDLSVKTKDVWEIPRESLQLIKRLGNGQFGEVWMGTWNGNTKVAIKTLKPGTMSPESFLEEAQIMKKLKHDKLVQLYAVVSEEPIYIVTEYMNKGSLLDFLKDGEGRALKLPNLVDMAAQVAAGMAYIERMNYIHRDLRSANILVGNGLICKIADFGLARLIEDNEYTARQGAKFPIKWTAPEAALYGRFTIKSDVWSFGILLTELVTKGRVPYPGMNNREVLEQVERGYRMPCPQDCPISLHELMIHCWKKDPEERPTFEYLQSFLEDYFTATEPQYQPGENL

KIT(A829P) = KIT(A829P) (Homo sapiens, UniProt P10721, A829P); test: KINOMEscan; format: binding; settings: 1 μM of compound 4; read-out: POC
FRK = target: T6, FRK (Homo sapiens, UniProt P42685); test: KINOMEscan; format: binding; settings: 1 μM of compound 4; read-out: POC
T6 construct: purchased Eurofins DiscoverX Corporation

[1] = target: T7, RSK1(Kin.Dom.2-C-terminal) (Homo sapiens, UniProt Q15418); test: KINOMEscan; format: binding; settings: 1 μM of compound 4; read-out: POC
T7 construct: RSK1(Kin.Dom.2-C-terminal); purchased Eurofins DiscoverX Corporation (KINOMEscan screening service)

CDK2 = CDK2 (Homo sapiens, UniProt P24941); test: KINOMEscan; format: binding; settings: 1 μM of compound 4; read-out: POC
DDR1 = DDR1 (Homo sapiens, UniProt Q08345); test: KINOMEscan; format: binding; settings: 1 μM of compound 4; read-out: POC
LCK = LCK (Homo sapiens, UniProt P06239); test: KINOMEscan; format: binding; settings: 1 μM of compound 4; read-out: POC
CDK5 = CDK5 (Homo sapiens, UniProt Q00535); test: KINOMEscan; format: binding; settings: 1 μM of compound 4; read-out: POC
EGFR [T790M/L858R] = target: T8, EGFR [T790M/L858R] (Homo sapiens, UniProt P00533, L858R/T790M); test: Time-dependent kinase inhibition assay (Sox-based substrate); format: biochemical
T8 construct: EGFR [T790M/L858R] and EGFR [L858R], cytoplasmic domain (669-1210), GST-tagged, Carna; GST; purchased Carna 08-510
T8 sequence (P00533 669-1210 T790M/L858R): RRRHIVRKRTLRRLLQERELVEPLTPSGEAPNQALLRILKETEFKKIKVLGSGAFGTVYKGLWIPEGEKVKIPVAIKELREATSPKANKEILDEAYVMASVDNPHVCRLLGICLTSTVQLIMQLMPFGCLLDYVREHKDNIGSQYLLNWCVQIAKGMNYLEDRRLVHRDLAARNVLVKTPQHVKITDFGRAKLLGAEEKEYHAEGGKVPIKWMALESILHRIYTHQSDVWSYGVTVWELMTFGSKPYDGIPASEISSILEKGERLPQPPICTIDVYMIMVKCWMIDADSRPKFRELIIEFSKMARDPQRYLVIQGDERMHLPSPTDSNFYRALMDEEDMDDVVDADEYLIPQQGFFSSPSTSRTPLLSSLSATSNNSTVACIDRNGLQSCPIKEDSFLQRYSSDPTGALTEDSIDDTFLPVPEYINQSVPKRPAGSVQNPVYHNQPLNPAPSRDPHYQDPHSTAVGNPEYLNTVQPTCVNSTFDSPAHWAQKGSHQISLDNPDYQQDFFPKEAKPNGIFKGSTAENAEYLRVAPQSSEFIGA
Protocol: (§1) Time-dependent Kinase Inhibition Assays. Biochemical assays were performed with commercially available EGFR WT, cytoplasmic domain (669-1210), GST-tagged, Carna (Cat #/Lot #: 08-115/21CBS-0127H), EGFR [T790M/L858R] and EGFR [L858R], cytoplasmic domain (669-1210), GST-tagged, Carna (Cat #/Lot #: 08-510/12CBS-0765M). […] BSA was not included in this experiment to prevent interference with irreversible inhibitor characterization via off-target binding. All reactions were run for 240 minutes at 30° C. Time-dependent fluorescence from the Sox-based substrate was monitored in PerkinElmer ProxiPlate-384 Plus, white shallow well microplates (Cat. #6008280) Biotek Synergy Neo 2 microplate reader with excitation (360 nm) and emission (485 nm) wavelengths. 2 was dosed between 0 and 10 μM in 24-point curves with 1.5-fold dilutions. Fluorescence, determined with identical reactions but lacking purified enzyme or crude cell lysate was subtracted from the total fluorescence signal for each time point, with both determined in duplicate, to obtain corrected relative fluorescence units (RFU). Corrected RFU values then were plotted vs. time and the reaction velocity for the first ~40 min (initial reaction rates) were determined from the slope using GraphPad Prism (La Jolla, CA) with units of RFU/min.

EGFR WT = target: T9, EGFR WT (Homo sapiens, UniProt P00533); test: as above; format: biochemical
T9 construct: EGFR WT, cytoplasmic domain (669-1210), GST-tagged, Carna; purchased Carna 08-115
T9 sequence (P00533 669-1210): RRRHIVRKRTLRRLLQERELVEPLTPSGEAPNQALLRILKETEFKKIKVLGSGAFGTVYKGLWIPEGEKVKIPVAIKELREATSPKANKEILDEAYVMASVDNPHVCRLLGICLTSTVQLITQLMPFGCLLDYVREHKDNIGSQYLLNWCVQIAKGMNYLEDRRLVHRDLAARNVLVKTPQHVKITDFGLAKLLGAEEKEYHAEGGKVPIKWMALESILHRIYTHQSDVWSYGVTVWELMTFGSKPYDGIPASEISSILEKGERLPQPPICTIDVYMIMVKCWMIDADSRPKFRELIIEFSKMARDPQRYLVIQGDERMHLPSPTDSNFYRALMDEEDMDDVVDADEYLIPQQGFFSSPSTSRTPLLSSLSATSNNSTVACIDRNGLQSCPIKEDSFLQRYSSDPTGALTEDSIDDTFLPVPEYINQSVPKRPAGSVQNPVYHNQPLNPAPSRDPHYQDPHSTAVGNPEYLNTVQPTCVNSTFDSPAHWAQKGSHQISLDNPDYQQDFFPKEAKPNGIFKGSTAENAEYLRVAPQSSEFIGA
Protocol: as §1

ULK1 = target: T10, ULK1 (Homo sapiens, UniProt O75385); test: KINOMEscan; format: binding; settings: 1 μM of compound 4; read-out: POC
T10 construct: purchased Eurofins DiscoverX

MAST1 = MAST1 (Homo sapiens, UniProt Q9Y2H9); test: KINOMEscan; format: binding; settings: 1 μM of compound 4; read-out: POC
MAST1, sequence (Q9Y2H9 whole entry): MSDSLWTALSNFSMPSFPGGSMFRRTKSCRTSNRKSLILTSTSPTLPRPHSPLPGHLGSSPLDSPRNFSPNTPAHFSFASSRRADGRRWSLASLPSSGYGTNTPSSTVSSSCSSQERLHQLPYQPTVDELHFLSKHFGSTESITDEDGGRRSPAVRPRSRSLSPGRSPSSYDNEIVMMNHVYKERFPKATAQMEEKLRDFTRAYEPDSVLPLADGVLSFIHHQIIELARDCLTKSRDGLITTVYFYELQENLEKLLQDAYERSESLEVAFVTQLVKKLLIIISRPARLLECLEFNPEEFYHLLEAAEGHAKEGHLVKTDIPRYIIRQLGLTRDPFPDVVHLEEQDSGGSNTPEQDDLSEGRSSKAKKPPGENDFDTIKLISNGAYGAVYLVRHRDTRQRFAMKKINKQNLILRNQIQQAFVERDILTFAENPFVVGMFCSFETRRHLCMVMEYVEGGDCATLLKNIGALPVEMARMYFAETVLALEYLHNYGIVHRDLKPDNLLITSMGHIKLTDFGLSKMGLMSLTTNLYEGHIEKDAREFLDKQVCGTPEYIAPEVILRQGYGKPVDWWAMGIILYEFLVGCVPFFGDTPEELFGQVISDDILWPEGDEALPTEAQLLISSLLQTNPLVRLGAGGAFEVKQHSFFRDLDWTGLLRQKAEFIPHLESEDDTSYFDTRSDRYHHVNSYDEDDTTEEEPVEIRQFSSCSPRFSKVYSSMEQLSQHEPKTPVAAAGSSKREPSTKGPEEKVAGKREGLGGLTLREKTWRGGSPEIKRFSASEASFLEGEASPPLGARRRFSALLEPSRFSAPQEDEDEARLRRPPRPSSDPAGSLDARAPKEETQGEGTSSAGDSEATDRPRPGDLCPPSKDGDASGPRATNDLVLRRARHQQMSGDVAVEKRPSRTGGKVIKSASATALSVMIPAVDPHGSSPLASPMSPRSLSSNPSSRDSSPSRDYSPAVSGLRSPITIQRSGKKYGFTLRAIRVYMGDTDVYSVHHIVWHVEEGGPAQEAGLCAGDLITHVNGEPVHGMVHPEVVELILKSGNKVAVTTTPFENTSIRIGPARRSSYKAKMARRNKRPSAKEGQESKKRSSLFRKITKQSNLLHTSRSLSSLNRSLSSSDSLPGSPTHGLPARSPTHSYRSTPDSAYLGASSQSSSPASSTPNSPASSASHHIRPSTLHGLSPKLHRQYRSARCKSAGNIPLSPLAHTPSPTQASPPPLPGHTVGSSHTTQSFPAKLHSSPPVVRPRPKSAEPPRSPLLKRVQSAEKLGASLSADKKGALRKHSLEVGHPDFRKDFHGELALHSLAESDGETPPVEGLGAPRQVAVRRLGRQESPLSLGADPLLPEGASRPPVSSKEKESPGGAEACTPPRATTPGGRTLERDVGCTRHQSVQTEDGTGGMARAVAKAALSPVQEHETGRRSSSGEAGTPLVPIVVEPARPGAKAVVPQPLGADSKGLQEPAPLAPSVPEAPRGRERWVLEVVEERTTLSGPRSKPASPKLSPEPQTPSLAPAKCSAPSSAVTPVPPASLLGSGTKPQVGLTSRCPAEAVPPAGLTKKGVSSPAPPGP

[2] = target: T11, ABL1(H396P)-phosphorylated (Homo sapiens, UniProt P00519, H396P); test: KINOMEscan; format: binding; settings: 1 μM of compound 4; read-out: POC
T11 construct: purchased Eurofins DiscoverX Corporation

NIM1 = target: T12, NIM1 (Homo sapiens, UniProt Q8IY84); test: KINOMEscan; format: binding; settings: 1 μM of compound 4; read-out: POC
T12 construct: purchased Eurofins DiscoverX Corporation (KINOMEscan)
T12 sequence (Q8IY84 whole entry): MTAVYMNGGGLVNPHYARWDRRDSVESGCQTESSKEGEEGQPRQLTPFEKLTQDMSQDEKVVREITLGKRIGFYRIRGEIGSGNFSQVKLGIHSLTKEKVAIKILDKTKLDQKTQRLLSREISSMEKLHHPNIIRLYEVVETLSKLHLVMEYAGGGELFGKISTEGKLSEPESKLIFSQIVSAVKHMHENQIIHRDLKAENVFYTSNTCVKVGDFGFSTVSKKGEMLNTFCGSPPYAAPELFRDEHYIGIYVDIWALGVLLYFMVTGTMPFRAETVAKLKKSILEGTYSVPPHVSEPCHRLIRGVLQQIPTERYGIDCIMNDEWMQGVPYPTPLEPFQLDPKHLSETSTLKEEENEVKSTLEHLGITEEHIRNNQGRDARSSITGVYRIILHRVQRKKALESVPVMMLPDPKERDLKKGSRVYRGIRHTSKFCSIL

NDR2 = NDR2 (Homo sapiens, UniProt Q9Y2H1); test: KINOMEscan; format: binding; settings: 1 μM of compound 4; read-out: POC
CAMK2D = CAMK2D (Homo sapiens, UniProt Q13557); test: KINOMEscan; format: binding; settings: 1 μM of compound 4; read-out: POC
CAMK2D, sequence (Q13557 whole entry): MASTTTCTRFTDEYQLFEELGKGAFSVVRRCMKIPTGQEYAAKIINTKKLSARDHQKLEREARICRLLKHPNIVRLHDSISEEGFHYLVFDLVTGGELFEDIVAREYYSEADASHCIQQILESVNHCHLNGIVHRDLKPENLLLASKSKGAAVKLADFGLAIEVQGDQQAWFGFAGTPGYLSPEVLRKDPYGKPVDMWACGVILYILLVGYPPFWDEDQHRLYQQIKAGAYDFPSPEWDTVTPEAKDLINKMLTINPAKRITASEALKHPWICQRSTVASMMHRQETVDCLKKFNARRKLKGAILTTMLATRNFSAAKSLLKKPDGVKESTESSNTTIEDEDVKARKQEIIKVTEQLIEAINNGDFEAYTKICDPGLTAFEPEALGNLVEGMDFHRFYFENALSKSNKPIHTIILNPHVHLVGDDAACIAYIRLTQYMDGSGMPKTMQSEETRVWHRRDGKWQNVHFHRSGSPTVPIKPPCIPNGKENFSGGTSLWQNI

ALK(L1196M) = ALK(L1196M) (Homo sapiens, UniProt Q9UM73, L1196M); test: KINOMEscan; format: binding; settings: 1 μM of compound 4; read-out: POC
MAP4K3 = MAP4K3 (Homo sapiens, UniProt Q8IVH8); test: KINOMEscan; format: binding; settings: 1 μM of compound 4; read-out: POC
NEK4 = NEK4 (Homo sapiens, UniProt P51957); test: KINOMEscan; format: binding; settings: 1 μM of compound 4; read-out: POC
INSRR = INSRR (Homo sapiens, UniProt P14616); test: KINOMEscan; format: binding; settings: 1 μM of compound 4; read-out: POC
ERK3 = target: T13, ERK3 (Homo sapiens, UniProt Q16659); test: KINOMEscan; format: binding; settings: 1 μM of compound 4; read-out: POC
T13 construct: purchased Eurofins DiscoverX Corporation

C=CC(=O)Nc1ccc(OC)c(Nc2cc(-c3[nH]c(CC)nc3-c3cccc(NC(=O)c4cccc5c4NC(=O)c4ccccc4N5)c3)ccn2)c1 [Compound 4, N-(3-(5-(2-((5-Acrylamido-2-methoxyphenyl)amino)pyridin-4-yl)-2-ethyl-1H-imidazol-4-yl)phenyl)-11-oxo-10,11-dihydro-5H-dibenzo[b,e][1,4]diazepine-9-carboxamide]
remaining binding at 1 µM (PDPK1): 84% | remaining binding at 1 µM (CSF1R-autoinhibited): 69% | remaining binding at 1 µM (ACVR1B): 85% | remaining binding at 1 µM (FLT3(R834Q)): 100% | remaining binding at 1 µM (PRKD1): 42% | remaining binding at 1 µM (SgK110): 100% | remaining binding at 1 µM (LIMK2): 93% | remaining binding at 1 µM (MST4): 94% | remaining binding at 1 µM (FYN): 64% | remaining binding at 1 µM (KIT(A829P)): 56% | remaining binding at 1 µM (FRK): 20% | remaining binding at 1 µM [1]: 75% | remaining binding at 1 µM (CDK2): 95% | remaining binding at 1 µM (DDR1): 90% | remaining binding at 1 µM (LCK): 7.7% | remaining binding at 1 µM (CDK5): 100% | Ki (EGFR [T790M/L858R]; read-out: KI, LRTM): 1600 ± 100 nM | kinact (EGFR [T790M/L858R]; read-out: kinact, LRTM (converted)): 0.00167 s⁻¹ | kinact/KI (EGFR [T790M/L858R]; read-out: kinact/KI, LRTM): 1070 ± 40 M⁻¹ s⁻¹ | Ki (EGFR WT): 1200 ± 40 nM | kinact (EGFR WT): 0.003 s⁻¹ | kinact/KI (EGFR WT): 2500 ± 10 M⁻¹ s⁻¹ | remaining binding at 1 µM (ULK1): 100% | remaining binding at 1 µM (MAST1): 100% | remaining binding at 1 µM [2]: 74% | remaining binding at 1 µM (NIM1): 78% | remaining binding at 1 µM (NDR2): 77% | remaining binding at 1 µM (CAMK2D): 88% | remaining binding at 1 µM (ALK(L1196M)): 89% | remaining binding at 1 µM (MAP4K3): 9.5% | remaining binding at 1 µM (NEK4): 100% | remaining binding at 1 µM (INSRR): 87% | remaining binding at 1 µM (ERK3): 100%

From US20260224588A1, “BENZODIAZEPINONE-DERIVED INHIBITORS OF EGFR AND HER2” (The Research Foundation for the State University of New York, priority 2023, published 2026)
